Literature values in patent US7803960B2, “Phenyloxyaniline derivatives” (Bayer Schering Pharma Aktiengesellschaft, priority 2006, dated 2010).

Legend:
[1] = system: Peripheral benzodiazepine receptor (PBR); conditions: compared with [^11C]PK11195 (1)
[2] = compared with [^11C]PK11195 (1)
PBRs = target: T1, PBRs (Homo sapiens, UniProt P30536); conditions: C-11 isotope labeled version, in vivo imaging
T1 construct: host or cells: brain, in vivo
T1 sequence (P30536 whole entry): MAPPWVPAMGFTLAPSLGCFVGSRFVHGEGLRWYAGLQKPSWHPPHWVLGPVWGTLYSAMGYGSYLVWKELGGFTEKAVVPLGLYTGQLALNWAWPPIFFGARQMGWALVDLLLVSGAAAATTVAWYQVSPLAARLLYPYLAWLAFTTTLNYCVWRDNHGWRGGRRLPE

Structure (SMILES)	binding affinity to PBR [1]	accumulation in the brain [2]	signal in the brain (PBRs)
COc1ccc(O[11CH3])c(CN(C(C)=O)c2cc(F)ccc2Oc2ccccc2)c1 [Compound 2]	higher	higher	
CC[C@@H](C)N(C)C(=O)c1cc2ccccc2c(-c2ccccc2Cl)n1 [PK11195]			not high enough for stable quantitative analysis
COc1ccc(OCC[18F])c(CN(C(C)=O)c2cc(F)ccc2Oc2ccccc2)c1 [Compound 3, N-(5-Fluoro-2-phenoxyphenyl)-N-(2-(2-[^18F]fluoroethoxy)-5-methoxybenzyl)acetamide]	higher	higher	
